Assay results as given in article PMC5674125, “Towards eco-friendly crop protection: natural deep eutectic solvents and defensive secondary metabolites” (Phytochemistry Reviews, 2017).

Assays:
Pieris rassicae = test system: Pieris rassicae; design: method as in Onkokesung et al. (2014); conditions: applied exogenously at 100 µM; ref Onkokesung et al. (2014); cited from earlier work
Spodoptera litura = conditions: 0.7–0.8 µg/ml; ref Mallikarjuna et al. (2004); cited from earlier work
[1] = Solubility in natural deep eutectic solvents (saturated solutions, UV-VIS); format: physicochemical; conditions: 1,2-propanediol: choline chloride: water (1:1:1), water 7.71%; 24 h at 50 °C; mean ± SD, n = 3
Procedure: As an extension of these studies, we have investigated the solubility of six insecticidal metabolites in a variety of NADES. The solvent selection framework consisted of the following steps: • Preliminary solvent screening: a pre-selected set of 20 NADES was used as a starting point to identify and rank potential NADES candidates (Table 3). Selection constraints were imposed on important properties such as viscosity and stability.
• Secondary screening: solubility tests were performed to determine the best solvent for each of the metabolites. Saturated solutions, generated by adding an excess amount of each compound to different NADES, were kept under constant stirring (1100 rpm) for 24 h at 50 °C. The 20 candidates were ranked in decreasing order of solvent power. • Solubility verification: For the verification of solubilities, samples were centrifuged for 5 min at 2000 rpm and subsequently diluted suitably with methanol for spectrophotometric analysis (UV-1800 UV–VIS spectrophotometer, Shimadzu Europe GmbH, Duisburg, Germany).

Helicoverpa armigera [2] = test system: Helicoverpa armigera; design: method as in Li et al. (2016); conditions: ref Li et al. (2016), cited from earlier work
Helicoverpa armigera [3] = test system: Helicoverpa armigera; design: method as in Liu et al. (2015); conditions: 3 and 10 mg/g; ref Liu et al. (2015); cited from earlier work
Lymantria dispar [4] = test system: Lymantria dispar; design: method as in Beninger and Abou-Zaid (1997); conditions: 0.05%, day 15; ref Beninger and Abou-Zaid (1997); cited from earlier work
Spodoptera frugiperda [5] = test system: Spodoptera frugiperda; design: method as in Gallo et al. (2006); conditions: 0.1 mg/g; ref Gallo et al. (2006); cited from earlier work
Bactrocera Cucurbitae = test system: Bactrocera Cucurbitae; design: method as in Sharma and Sohal (2013); conditions: 125 ppm; ref Sharma and Sohal (2013); cited from earlier work
Aphis fabae = test system: Aphis fabae; design: method as in Lattanzio et al. (2000); conditions: 0.1 M; ref Lattanzio et al. (2000); cited from earlier work
[6] = ref Dai et al. (2013, 2015); cited from earlier work
Acyrthosiphon pisum = test system: Acyrthosiphon pisum; design: method as in Goławska et al. (2014); conditions: ref Goławska et al. (2014), cited from earlier work
Spodoptera frugiperda [7] = test system: Spodoptera frugiperda; design: method as in Diaz Napal and Palacios (2015); conditions: 100 µg/cm^2; ref Diaz Napal and Palacios (2015); cited from earlier work
Plagiodera versicolora = test system: Plagiodera versicolora; design: method as in Jassbi (2003); conditions: ref Jassbi (2003); cited from earlier work
Helicoverpa zea = test system: Helicoverpa zea; design: method as in Summers and Felton (1994); conditions: 4 mM, ref Summers and Felton (1994), cited from earlier work
Trichoplusia ni = test system: Trichoplusia ni; design: method as in Beninger et al. (2004); conditions: 100 ppm (2.8 mM) and 1000 ppm (28 mM); ref Beninger et al. (2004); cited from earlier work
Dalbulus maidis = test system: Dalbulus maidis; design: method as in Dowd and Vega (1996); conditions: adults, 400 ppm, in vitro bioassay; ref Dowd and Vega (1996); cited from earlier work
Lymantria dispar [8] = test system: Lymantria dispar; design: method as in Beninger et al. (2004); conditions: 100 ppm (2.8 mM) and 1000 ppm (28 mM); ref Beninger et al. (2004); cited from earlier work
Agelastica alni = test system: Agelastica alni; design: method as in Ikonen et al. (2002); conditions: 2.48% by weight, dual choice bioassay; ref Ikonen et al. (2002); cited from earlier work
[9] = test system: Frankliniella occidentalis; design: method as in Leiss et al. (2009a); conditions: 5% (5 mg/ml); ref Leiss et al. (2009a); cited from earlier work

## C[C@@H]1O[C@@H](Oc2cc(O)c3c(=O)c(O[C@@H]4O[C@@H](C)[C@H](O)[C@@H](O)[C@H]4O)c(-c4ccc(O)cc4)oc3c2)[C@H](O)[C@H](O)[C@H]1O [kaempferol 3-O-rhamnoside 7-O-rhamnoside]
Pieris rassicae
  Growth: Growth negatively affected

## O=c1c(O)c(-c2ccc(O)c(O)c2)oc2cc(O)cc(O)c12 [Quercetin]
Spodoptera litura
  Development: Developmental retardation
  Larval mortality: > 60%
[1]
  Solubility: 44.34 ± 0.76 mg/g
Helicoverpa armigera [2]; 8 mg/g
  Reduction of pupation: 50%
Helicoverpa armigera [2]; 16 mg/g
  Reduction of larval weight: ~50%
Helicoverpa armigera [2]; 32 mg/g
  Mortality: > 80%
Helicoverpa armigera [3]
  Growth, pupation, adult emergence, survival: Deleterious effects growth, pupation and adult emergence, and survivalat 3 and 10 mg/g
Lymantria dispar [4]
  Larval weight reduction: Larval growth inhibitor. Larval weight reduced by 33% at 0.05% at day 15
Spodoptera frugiperda [5]
  Larval mortality: 78% Larval mortality at 0.1 mg/g
Bactrocera Cucurbitae
  Food assimilation, larval and pupal weight: Growth regulator and or deterrent: reduction in food assimilation as well as larval and pupal weight at 125 ppm
Aphis fabae
  Progeny deposition: Inhibitory activity on progeny deposition 0.1 M
[6]
  Solubility in NADES compared to aqueous solubility: significantly increased
Acyrthosiphon pisum; 100 µg cm^−3
  Probing and feeding deterrence: Probing and feeding deterrent
Acyrthosiphon pisum; higher concentration than 100 µg cm^−3
  Mortality, development time, fecundity: mortality and development time are increased whereas fecundity is decreased
Spodoptera frugiperda [7]
  Feeding deterrence: Feeding deterrent (57%) at 100 µg/cm^2

## O=C(/C=C/c1ccc(O)c(O)c1)O[C@@H]1C[C@](O)(C(=O)O)C[C@@H](O)[C@H]1O [Chlorogenic acid]
Spodoptera litura
  Development: Developmental retardation
  Larval mortality: > 60%
Plagiodera versicolora
  Amount with antifeedant activity: Antifeedant activity above 50 µg/disk
Helicoverpa zea; chronic exposure
  Prooxidant effect on midgut proteins: oxidative stress in midgut proteins
Helicoverpa zea
  Development rate, survivorship and pupal weight: Development rate and pupal weight are negatively influenced
Trichoplusia ni
  Larval growth and development: Reduced larval growth and development at 100 ppm (2.8 mM) and 1000 ppm (28 mM)
Dalbulus maidis
  Antifeedant activity: Antifeedant activity in adults at 400 ppm (in vitro bioassay)
Lymantria dispar [8]
  Larval growth and development: Reduced larval growth and development at 100 ppm (2.8 mM) and 1000 ppm (28 mM)
Agelastica alni
  Feeding deterrence: Feeding deterrent at concentration of 2.48% by weight (dual choice bioassay)
[9]
  Relative growth rate and survival of first instar larva: Reduced relative growth rate and survival of first instar larva at 5% (5 mg/ml)
